Article PMC5937946 (Biochemistry, 2017)
Read-outs that look alike come from different tables or passages of the source.

What was measured:
[1] = test system: C. albicans cell-associated Cu; assay: ICP-MS of cell-associated Cu content; type: cell-based, Candida albicans; conditions: cells grown overnight with BCS
[2] = test system: C. albicans (ATCC, SC5314)
[3] = test system: C. albicans (ATCC, SC5314); assay: Antifungal susceptibility assay; conditions: for growth inhibition of C. albicans by metal ion alone: concentration range tested 0–100 µM, no peptide
[4] = pH 7.4; cited from earlier work
[5] = pH 7.4; cited from earlier work; remark: listed apart in the source

SMILES: Cc1cc(-c2ccc(S(=O)(=O)O)cc2)c2ccc3c(-c4ccc(S(=O)(=O)O)cc4)cc(C)nc3c2n1 [BCS, bathocuproine disulphonate]
- decrease in cell-associated Cu compared to basal level [1]: 70%
- concentrations well tolerated by C. albicans, ligand alone [2]: ≤ 2000 µM

SMILES: O=S(=O)([O-])[O-].[Cu+2] [CuSO4, copper sulfate]
- growth inhibition of C. albicans by metal ion alone [3]: Neither Cu(II) nor Fe(III) by themselves inhibited growth

SMILES: O=C(O)CN(CCN(CC(=O)O)CC(=O)O)CC(=O)O [EDTA, ethylenediaminetetraacetic acid]
- concentrations well tolerated by C. albicans, ligand alone ([3]; initial susceptibility testing of the ligands alone): ≤ 250 µM

SMILES: [Cl][Fe]([Cl])[Cl] [Fe(III), FeCl3]
- growth inhibition of C. albicans by metal ion alone [3]: Neither Cu(II) nor Fe(III) by themselves inhibited growth

SMILES: O=S(=O)([O-])c1ccc(-c2nnc(-c3ccccn3)nc2-c2ccc(S(=O)(=O)[O-])cc2)cc1.[Na+].[Na+] [Fz, Ferrozine]
- log KFz2Cu(I) [4]: 11.56

SMILES: O=C(O)CN(CC(=O)O)CC(=O)O [NTA, nitrilotriacetic acid]
- log KNTA(Cu(II)) [5]: 10.68
